# According to ChEMBL document CHEMBL1201862, “PubChem BioAssay data set” (2004):
# Activity calls are given as the source filed them.
# Legend:
# [1] = biological target: T1, Low molecular weight phosphotyrosine protein phosphatase (Homo sapiens, UniProt P24666); format: functional; conditions: read-out: IC50_Mean
# T1 sequence (P24666 whole entry): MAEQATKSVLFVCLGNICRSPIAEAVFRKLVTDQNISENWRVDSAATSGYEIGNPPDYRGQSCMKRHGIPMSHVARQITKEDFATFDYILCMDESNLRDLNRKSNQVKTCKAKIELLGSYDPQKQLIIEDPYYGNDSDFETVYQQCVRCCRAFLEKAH
# [2] = biological target: T1, Low molecular weight phosphotyrosine protein phosphatase; format: functional; conditions: read-out: IC50_Mean; remark: listed apart in the source
# [3] = biological target: T2, Carboxy-terminal domain RNA polymerase II polypeptide A small phosphatase 1 (Homo sapiens, UniProt Q9GZU7); test: inhibitors of CTDSP1, concentration-response testing, biochemical assay, absorbance-based, actives from ultra-high-throughput screening (AID 540297); format: functional
# T2 sequence (Q9GZU7 whole entry): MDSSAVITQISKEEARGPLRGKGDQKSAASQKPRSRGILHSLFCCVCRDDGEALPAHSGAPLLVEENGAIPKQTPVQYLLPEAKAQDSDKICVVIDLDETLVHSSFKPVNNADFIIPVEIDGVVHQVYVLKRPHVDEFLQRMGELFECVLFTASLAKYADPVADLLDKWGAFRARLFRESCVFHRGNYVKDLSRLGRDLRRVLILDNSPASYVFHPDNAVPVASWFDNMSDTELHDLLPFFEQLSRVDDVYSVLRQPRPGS
# Beta-galactosidase = Beta-galactosidase (Escherichia coli, UniProt Q8VNN2); test: Dose response counterscreen for EBI2 assay utilizing the enzyme, b-galactosidase.; format: functional
# [4] = biological target: T3, Methionyl-tRNA synthetase, putative (Trypanosoma brucei brucei, UniProt Q38C91); format: functional, Trypanosoma brucei brucei strain 927/4 GUTat10.1
# T3 sequence (Q38C91 whole entry): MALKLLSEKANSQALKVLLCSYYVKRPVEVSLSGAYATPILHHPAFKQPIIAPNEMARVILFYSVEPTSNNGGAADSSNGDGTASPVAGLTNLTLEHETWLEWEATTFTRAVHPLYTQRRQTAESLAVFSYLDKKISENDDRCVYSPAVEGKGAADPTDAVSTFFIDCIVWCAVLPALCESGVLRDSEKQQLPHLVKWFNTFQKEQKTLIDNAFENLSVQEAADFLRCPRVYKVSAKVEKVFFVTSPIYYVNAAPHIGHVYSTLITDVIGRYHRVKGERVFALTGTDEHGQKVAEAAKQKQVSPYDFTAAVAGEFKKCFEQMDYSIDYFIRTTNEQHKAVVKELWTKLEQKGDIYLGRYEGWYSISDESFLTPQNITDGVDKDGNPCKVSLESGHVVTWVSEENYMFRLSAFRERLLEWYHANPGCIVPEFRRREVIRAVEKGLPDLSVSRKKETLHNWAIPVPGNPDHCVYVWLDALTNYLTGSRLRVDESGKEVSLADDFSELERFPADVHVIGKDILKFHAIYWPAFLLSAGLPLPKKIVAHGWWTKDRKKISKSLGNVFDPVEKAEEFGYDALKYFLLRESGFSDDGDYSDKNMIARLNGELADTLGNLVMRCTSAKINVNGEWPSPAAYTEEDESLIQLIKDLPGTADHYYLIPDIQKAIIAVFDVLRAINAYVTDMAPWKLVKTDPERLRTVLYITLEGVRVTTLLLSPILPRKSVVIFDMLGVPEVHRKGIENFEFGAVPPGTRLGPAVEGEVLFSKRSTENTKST
# [5] = biological target: T3, Methionyl-tRNA synthetase, putative; format: functional, Trypanosoma brucei brucei strain 927/4 GUTat10.1; remark: listed apart in the source
# [6] = Counterscreen for inhibitors of Trypanosoma brucei methionyl tRNA synthetase (MetRS): Luminescence-based cell-based high throughput dose response assay to identify compounds that are cytotoxic to Jurkat human T lymphocyte cells.; format: functional
# [7] = biological target: T4, Sentrin-specific protease 1 (Homo sapiens, UniProt Q9P0U3); test: potency of human SENP1 inhibitors, dose response, biochemical, kinetic FRET (AID 651697); format: functional; conditions: read-out: IC50_Mean
# T4 sequence (Q9P0U3 whole entry): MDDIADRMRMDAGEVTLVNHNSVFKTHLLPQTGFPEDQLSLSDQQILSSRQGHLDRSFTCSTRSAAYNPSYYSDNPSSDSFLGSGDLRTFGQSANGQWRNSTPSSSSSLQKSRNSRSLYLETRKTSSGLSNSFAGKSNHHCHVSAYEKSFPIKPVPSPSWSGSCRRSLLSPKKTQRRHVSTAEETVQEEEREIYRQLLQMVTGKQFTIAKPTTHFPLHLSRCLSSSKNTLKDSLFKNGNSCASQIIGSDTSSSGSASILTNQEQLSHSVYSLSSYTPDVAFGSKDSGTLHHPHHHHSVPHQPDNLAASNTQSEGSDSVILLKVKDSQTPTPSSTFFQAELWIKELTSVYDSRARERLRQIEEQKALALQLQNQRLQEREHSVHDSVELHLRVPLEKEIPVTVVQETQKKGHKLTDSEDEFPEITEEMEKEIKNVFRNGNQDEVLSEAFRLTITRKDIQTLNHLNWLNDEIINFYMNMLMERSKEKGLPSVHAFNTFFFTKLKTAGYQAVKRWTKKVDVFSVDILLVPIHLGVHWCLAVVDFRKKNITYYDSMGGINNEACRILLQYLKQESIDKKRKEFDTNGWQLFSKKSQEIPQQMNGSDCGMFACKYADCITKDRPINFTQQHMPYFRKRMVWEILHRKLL
# [8] = biological target: T4, Sentrin-specific protease 1; test: Dose response confirmation of small molecule inhibitors of the catalytic domain of the SUMO protease, SENP1 in a FRET assay.; format: functional; conditions: read-out: IC50_Mean
# [9] = biological target: T5, RNA-binding protein pos-1 (Caenorhabditis elegans, UniProt G5EF15); test: inhibitors of POS-1/mex-3 RNA binding, dose response, biochemical, fluorescence polarization (AID 1964);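 note: purified POS-1 fused to maltose binding protein made in E. coli; potency of compounds blocking POS-1 binding to fluorescent RNA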
# T5 sequence (G5EF15 whole entry): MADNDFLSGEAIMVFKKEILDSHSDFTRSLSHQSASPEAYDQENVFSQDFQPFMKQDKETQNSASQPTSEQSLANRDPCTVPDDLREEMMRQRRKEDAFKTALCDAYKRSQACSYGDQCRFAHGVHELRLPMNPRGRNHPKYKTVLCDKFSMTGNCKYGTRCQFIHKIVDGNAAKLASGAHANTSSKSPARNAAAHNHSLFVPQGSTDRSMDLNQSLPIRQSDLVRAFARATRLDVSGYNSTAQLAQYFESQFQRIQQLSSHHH
# [10] = biological target: T6, Zinc finger protein mex-5 (Caenorhabditis elegans, UniProt Q9XUB2); test: MEX-5/TCR-2 RNA interaction inhibitors, dose response, biochemical, C. elegans, fluorescence polarization (AID 1960)
# T6 sequence (Q9XUB2 whole entry): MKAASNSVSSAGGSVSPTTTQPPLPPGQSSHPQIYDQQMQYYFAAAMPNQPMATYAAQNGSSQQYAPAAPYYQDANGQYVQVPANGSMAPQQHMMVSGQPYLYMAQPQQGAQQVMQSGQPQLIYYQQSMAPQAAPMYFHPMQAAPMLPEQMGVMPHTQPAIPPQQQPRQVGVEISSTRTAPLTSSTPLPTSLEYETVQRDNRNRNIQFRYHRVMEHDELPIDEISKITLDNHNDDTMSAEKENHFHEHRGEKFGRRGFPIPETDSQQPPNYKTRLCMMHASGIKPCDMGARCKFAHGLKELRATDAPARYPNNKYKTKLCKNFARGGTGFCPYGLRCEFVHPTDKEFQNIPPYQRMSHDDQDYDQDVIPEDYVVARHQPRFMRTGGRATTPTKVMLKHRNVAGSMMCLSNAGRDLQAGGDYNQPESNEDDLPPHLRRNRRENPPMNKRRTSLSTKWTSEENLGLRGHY
# [11] = biological target: Nuclear receptor subfamily 5 group A member 2 (Homo sapiens, UniProt O00482); format: functional, cell-based;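 note: HEK293T cells transfected with LRH-1 and a StAR promoter luciferase reporter; potency for inhibitors that lower LRH-1 driven reporter light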
# [12] = StAR promoter reporter inhibition counter-screen, dose response, counter-screen for LRH-1 inverse agonist project, cell-based, luminescence, luciferase reporter (AID 651969); format: functional
# [13] = biological target: T7, Long-chain-fatty-acid--AMP ligase FadD28 (Mycobacterium tuberculosis, UniProt P9WQ59); test: Fluorescence polarization aasay to screen for inhibitors that compete for the binding of FadD28 to a bisubstrate Measured in Biochemical System Using Plate Reader - 2147-01_Inhibitor_Dose_CherryPick_Activity.; format: functional, Mycobacterium tuberculosis H37Rv
# T7 sequence (P9WQ59 whole entry): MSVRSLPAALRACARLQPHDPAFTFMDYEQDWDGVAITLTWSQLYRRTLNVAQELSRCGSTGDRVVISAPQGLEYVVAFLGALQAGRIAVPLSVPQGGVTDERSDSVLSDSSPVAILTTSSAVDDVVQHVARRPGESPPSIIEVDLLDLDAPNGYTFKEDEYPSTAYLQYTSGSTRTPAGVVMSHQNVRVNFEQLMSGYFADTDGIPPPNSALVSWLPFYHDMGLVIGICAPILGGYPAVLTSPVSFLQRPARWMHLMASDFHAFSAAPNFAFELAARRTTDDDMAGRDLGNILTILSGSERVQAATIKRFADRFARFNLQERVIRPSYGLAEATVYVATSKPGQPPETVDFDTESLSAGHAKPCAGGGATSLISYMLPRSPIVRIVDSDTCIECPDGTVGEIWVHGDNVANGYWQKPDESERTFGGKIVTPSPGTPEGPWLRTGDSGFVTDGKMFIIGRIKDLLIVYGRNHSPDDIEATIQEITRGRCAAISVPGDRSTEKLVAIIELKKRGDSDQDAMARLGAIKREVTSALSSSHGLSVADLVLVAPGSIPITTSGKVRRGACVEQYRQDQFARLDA
# [14] = inhibitors of intracellular T. cruzi replication, confirmation, NIH3T3 host cells, beta-gal luminescence (AID 2044); format: functional, cell-based;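 note: intracellular parasites grown in NIH/3T3 mouse fibroblasts as host cells; luminescent beta-galactosidase reporter signal from transgenic T. cruzi replicating inside host cells; inhibitors lower the luminescence signal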
# Steroidogenic factor 1 = Steroidogenic factor 1 (Homo sapiens, UniProt Q13285); test: Counterscreen for inverse agonists of the liver receptor homolog-1 (LRH-1; NR5A2): Luminescence-based cell-based high throughput dose response assay to identify inverse agonists of the Steroidogenic Factor 1 Nuclear Receptor (SF1; NR5A1).; format: functional
# [15] = cytotoxicity toward NIH3T3 fibroblasts, dose response, counter-screen, cell-based, ATP luminescence, mouse fibroblasts (AID 2010); format: functional;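 note: cells exposed to compound for about 90 hours before reading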
# [16] = miR-122 activators in hepatoma reporter cells, dose response, cell-based, Huh7 psiCHECK-miR122, Renilla luciferase, cherry-picked (AID 651956); format: functional;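 note: huh7 hepatoma cells stably carrying a psiCHECK-2 miR-122 sensor plasmid; renilla luciferase signal reporting endogenous miR-122 activity after 48 h compound exposure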
# Paired box protein Pax-8 = Paired box protein Pax-8 (Homo sapiens, UniProt Q06710); test: inhibitors of PAX8-driven TPO luciferase reporter, dose response, RMG-I cells, cherry-pick (AID 687027); format: functional, cell-based;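 note: luciferase reporter driven by Pax8 target thyroperoxidase promoter measured by SteadyGlo luminescence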
# [17] = cytotoxicity in OVCAR8 ovarian cancer cells, dose response, PAX8 project, cell-based, plate reader, dry powder samples (AID 743197); format: functional; conditions: OVCAR-8
# [18] = NIH:OVCAR-3 ovarian cancer cell cytotoxicity, dose response, PAX8 inhibitor project, plate reader, dry powder samples (AID 743044); format: functional, cell-based
# Chain of Beta-galactosidase (Q8VNN2 whole entry): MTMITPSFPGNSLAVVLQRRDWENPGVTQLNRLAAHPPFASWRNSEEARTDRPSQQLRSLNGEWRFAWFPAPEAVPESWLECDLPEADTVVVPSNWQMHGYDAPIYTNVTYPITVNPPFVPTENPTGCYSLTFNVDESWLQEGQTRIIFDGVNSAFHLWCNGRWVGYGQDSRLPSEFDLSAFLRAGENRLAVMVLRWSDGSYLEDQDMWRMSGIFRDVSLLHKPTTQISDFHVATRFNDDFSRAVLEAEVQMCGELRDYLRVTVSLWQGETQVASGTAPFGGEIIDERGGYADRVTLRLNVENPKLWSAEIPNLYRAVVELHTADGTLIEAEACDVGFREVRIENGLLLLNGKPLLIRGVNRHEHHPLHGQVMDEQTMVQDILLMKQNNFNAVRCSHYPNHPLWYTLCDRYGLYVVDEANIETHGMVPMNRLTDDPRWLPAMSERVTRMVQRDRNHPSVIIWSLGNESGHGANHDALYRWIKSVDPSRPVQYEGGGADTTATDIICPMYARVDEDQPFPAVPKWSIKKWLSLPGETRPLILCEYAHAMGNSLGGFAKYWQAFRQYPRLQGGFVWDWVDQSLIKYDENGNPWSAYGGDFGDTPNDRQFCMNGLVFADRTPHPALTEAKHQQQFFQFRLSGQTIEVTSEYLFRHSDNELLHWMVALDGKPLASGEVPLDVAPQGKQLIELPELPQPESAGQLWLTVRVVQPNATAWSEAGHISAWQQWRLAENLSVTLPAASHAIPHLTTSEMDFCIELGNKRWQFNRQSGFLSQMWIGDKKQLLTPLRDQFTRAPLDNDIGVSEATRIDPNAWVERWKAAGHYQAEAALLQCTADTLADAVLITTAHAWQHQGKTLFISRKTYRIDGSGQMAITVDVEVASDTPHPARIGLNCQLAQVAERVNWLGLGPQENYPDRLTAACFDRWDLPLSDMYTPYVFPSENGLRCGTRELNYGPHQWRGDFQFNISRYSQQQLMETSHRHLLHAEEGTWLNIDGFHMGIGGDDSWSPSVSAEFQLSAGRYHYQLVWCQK
# Chain of Paired box protein Pax-8 (Q06710 whole entry): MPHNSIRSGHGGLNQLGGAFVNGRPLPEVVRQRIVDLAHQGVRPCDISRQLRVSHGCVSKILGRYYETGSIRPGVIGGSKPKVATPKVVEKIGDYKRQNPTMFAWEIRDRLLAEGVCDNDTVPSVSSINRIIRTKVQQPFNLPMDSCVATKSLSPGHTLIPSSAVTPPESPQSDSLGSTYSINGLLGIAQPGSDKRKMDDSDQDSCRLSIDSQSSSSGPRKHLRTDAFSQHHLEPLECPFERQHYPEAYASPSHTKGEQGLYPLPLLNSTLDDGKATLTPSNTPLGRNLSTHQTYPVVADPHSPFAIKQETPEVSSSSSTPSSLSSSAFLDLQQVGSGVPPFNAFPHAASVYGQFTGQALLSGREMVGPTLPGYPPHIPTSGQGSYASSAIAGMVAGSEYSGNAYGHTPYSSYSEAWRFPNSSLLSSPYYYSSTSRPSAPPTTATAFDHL
# Chain of Steroidogenic factor 1 (Q13285 whole entry): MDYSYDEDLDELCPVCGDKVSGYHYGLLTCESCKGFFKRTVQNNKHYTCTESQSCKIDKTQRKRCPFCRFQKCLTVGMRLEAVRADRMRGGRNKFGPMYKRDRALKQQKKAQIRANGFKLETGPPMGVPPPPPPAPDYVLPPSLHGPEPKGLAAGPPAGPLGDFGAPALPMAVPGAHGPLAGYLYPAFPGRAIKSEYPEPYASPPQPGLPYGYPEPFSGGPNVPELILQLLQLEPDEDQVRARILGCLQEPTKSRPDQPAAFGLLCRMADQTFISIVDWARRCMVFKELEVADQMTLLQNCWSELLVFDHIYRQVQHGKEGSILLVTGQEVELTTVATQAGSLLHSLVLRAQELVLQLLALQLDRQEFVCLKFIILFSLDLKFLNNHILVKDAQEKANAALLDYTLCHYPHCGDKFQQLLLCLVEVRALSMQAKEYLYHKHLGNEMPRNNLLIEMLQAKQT
# Chain of Nuclear receptor subfamily 5 group A member 2 (O00482 whole entry): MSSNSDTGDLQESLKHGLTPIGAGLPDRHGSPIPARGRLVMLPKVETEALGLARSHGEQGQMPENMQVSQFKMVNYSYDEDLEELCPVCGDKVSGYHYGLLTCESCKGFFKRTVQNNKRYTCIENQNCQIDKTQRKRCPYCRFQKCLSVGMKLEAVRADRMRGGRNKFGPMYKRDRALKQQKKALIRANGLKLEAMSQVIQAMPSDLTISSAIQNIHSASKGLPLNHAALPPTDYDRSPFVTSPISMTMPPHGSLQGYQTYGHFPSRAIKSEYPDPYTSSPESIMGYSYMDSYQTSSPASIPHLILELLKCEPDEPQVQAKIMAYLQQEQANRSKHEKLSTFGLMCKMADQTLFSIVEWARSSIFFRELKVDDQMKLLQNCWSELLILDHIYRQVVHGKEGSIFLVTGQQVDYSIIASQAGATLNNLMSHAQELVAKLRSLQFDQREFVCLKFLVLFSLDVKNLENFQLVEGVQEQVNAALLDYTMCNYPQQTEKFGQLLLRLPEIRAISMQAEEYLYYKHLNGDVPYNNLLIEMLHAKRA
smiles,measurement,setting,value
O=C(CSc1nc(-c2ccccc2)nc2ccc(F)cc12)Nc1cccc(C(=O)O)c1,IC50,[1],42.2 µM (inactive)
same,IC50,[2],21.4 µM (inactive)
same,IC50,[3],6.6 µM (active)
COc1cc(OC)cc(C(=O)N2CCN(C(=O)COc3ccc4ccccc4c3)CC2)c1,IC50,Beta-galactosidase,> 80 µM (inactive)
CCC(C)N1CCN(C(=O)COc2ccc3ccccc3c2)CC1 (stereo not given),IC50,Beta-galactosidase,> 80 µM (inactive)
O=C(CSc1n[nH]c2c3cc(F)ccc3nc-2n1)NCc1ccc(F)cc1,IC50,[4],119 µM (inactive)
same,IC50,[5],1.42 µM (active)
same,IC50,[6],83.3 µM (inactive)
Cc1ccc(C)c(OCCC(=O)Nc2cccc(S(=O)(=O)NC3=NCCCCC3)c2)c1,IC50,[4],98.3 µM (inactive)
same,IC50,[5],46.4 µM (inactive)
same,IC50,[6],83.3 µM (inactive)
Cc1ccc(/C=C/C(=O)N2CCC(Cc3ccccc3)CC2)cc1,IC50,Beta-galactosidase,> 80 µM (inactive)
CN(C)C(=O)CSc1ccc(S(=O)(=O)N2CCCC2)cn1,IC50,[7],12.9 µM (active)
same,IC50,[8],20.7 µM (inactive)
Cc1ccc2cc(/C=C(\C#N)C(N)=O)c(N3CCCCC3)nc2c1,IC50,[7],18.4 µM (active)
same,EC50,[9],50.6 µM (active)
same,EC50,[10],30.7 µM (inconclusive)
same,IC50,[8],36.2 µM (inactive)
COC(=O)c1ccc(COc2ccc(/C=N/NC(N)=S)cc2)o1,IC50,[11],9.77 µM (active)
same,IC50,[12],35.9 µM (inactive)
same,AC50,[13],3.63 µM (active)
same,EC50,[14],1.39 µM (active)
same,IC50,Steroidogenic factor 1,1.97 µM (active)
same,EC50,[15],> 60 µM (not active)
C[C@@H]1CN([C@@H](C)CO)S(=O)(=O)c2ccc(C#CC3(O)CCCC3)cc2O[C@@H]1CN(C)C(=O)c1cccnc1,AC50,[16],7.95 µM (active)
Cc1cc(C)n2c(Nc3c(C)cccc3C)c(-c3cccnc3)nc2n1,IC50,[7],28.3 µM (inactive)
same,IC50,[8],16.8 µM (active)
C[C@@H]1CCCCO[C@@H](CN(C)C(=O)Nc2ccc(C(F)(F)F)cc2)[C@H](C)CN([C@H](C)CO)C(=O)c2cc(NS(=O)(=O)c3ccc(F)cc3)ccc2O1,AC50,Paired box protein Pax-8,5.62 µM (active)
same,AC50,[17],> 70 µM (inactive)
same,AC50,[18],23.5 µM (active)
